Laboratory results published in patent US20050148553A1, “Use of tigecycline, alone, or in combination with rifampin to treat osteomyelitis and/or septic arthritis” (priority 2003, published 2005).

Experiments:
M. abcessus = assay: Susceptibility/MIC of patient isolate, compassionate use study; type: cell-based, Mycobacterium abscessus
Acinetobacter baumannii = assay: Compassionate use study, osteomyelitis patient; type: in vivo, human; details: 50 mg every 12 or 24 hours for two months; within one month
Experimental: The patient was treated with meropenem and tobramycin. […] The patient was then treated with tigecycline for two months with either 50 mg every 12 hours or 50 mg every 24 hours.

Mycobacterium abscessus = type: in vivo, human; details: vertebral osteomyelitis patient
Experimental: Debridement was accomplished after one year of infection with placement of hardware. […] The amikacin was later stopped due to renal damage. Linezolid and azithromycin were later added to the treatment regimen. The organism was determined to be resistant to moxifloxacin.
The patient presented later with a new vertebral osteomyelitis just above the site of the old infection. A biopsy was performed and it was determined that no additional debridement was needed. […] Tigecycline was administered up to MIC 0.25 micrograms/ml. The patient's white blood cell count was normal while hypogammaglobulinemia was present and lymphocytic function decreased. The patient had also been under treatment with IL-12, but IL-12 was held during antibiotic treatment.

[1] = Antibiotic levels in rabbit serum and bone by diffusion bioassay; type: in vivo, New Zealand white rabbits
Experimental: Normal NZW rabbit serum (Fisher Scientific) and normal, uninfected rabbit tibia bone were used to generate standard curves for tigecycline (Wyeth-Ayerst Research, Pearl River, N.Y.), vancomycin (Abbott Laboratories, Chicago, Ill.), and rifampin (Merrell Pharmaceuticals Inc. Kansas, Mo.). Bioassays were performed with each drug to generate the standard curves for antibiotic concentration in serum and/or tibial bone.
The organism used for the bioassay was Bacillus cereus ATCC11778. Serum standards were prepared using two-fold serial dilutions with either antibiotic to yield concentrations of 25 μg/ml to 0.20 μg/ml drug in Normal NZW rabbit serum. Bone eluate standards were prepared for tigecycline by thoroughly cleaning noninfected rabbit tibias with 70% ethanol in a sterilized fume hood. Each tibia was broken into small chips of approximately 0.5 cm^2 using a grinder. The chips were placed into a sterile, 50 ml conical centrifuge tube and weighed. One milliliter of sterile, 0.9% normal saline was added for each gram of bone chips. The solution was thoroughly vortexed for two minutes. The resulting bone eluate was allowed to shake at 180 rpm in a cold room at 4° C., for 12 hours. The samples were centrifuged at 4000 rpm for 3 minutes prior to assay, to pellet the chips.
The diameter of the zone of growth inhibition around each well was measured, in millimeters. A standard curve was generated for tigecycline concentration in both serum and bone eluate and for vancomycin in serum by plotting the known antibiotic concentration against its resulting zone of inhibition measurement. […]
Serum samples were stored at −70° C. until the bioassay was performed. […] The diameter of the zone of growth inhibition around each well was measured and concentrations of tigecycline were extrapolated from the standard curve.
Peak and trough levels of antibiotic were determined for Groups 2 and 4 at 1 hour (peak) and 12 hour (trough) after the initial antibiotic administration. Antibiotic concentrations were determined by means of a bioassay. […]

## CN(C)c1cc(NC(=O)CNC(C)(C)C)c(O)c2c1C[C@H]1C[C@H]3[C@H](N(C)C)C(O)=C(C(N)=O)C(=O)[C@@]3(O)C(O)=C1C2=O [Tigecycline]
M. abcessus; M. abscessus patient isolate
  susceptibility of the organism: susceptible
M. abcessus; Mycobacteroides abscessus, M. abcessus from a human patient, read-out: minimum inhibitory concentration
  MIC: 0.25 µg/mL
Acinetobacter baumannii
  clinical outcome (MRI): resolution of the osteomyelitis
Mycobacterium abscessus
  clinical outcome: doing well a year after the treatment
[1]; New Zealand white, rabbit, serum, subcutaneous, uninfected rabbits, 14 mg/kg twice daily, read-out: serum level at 12 hour (trough)
  concentration at 12 h: > 200 ng/mL
[1]; infected rabbits, tigecycline 14 mg/kg, vancomycin 30 mg/kg twice daily
  antibiotic serum levels (peaks and troughs): above minimum inhibitory concentrations
